The nature of this series: Measurement of LogP values by HPLC on reversed phase columns (EEC directive 79/831 Annex V.A8). In kind it is physicochemical. The note with it: for chromatographic logP: reversed-phase HPLC column (Agilent Zorbax Eclipse C18). As to the method:
Measurement of LogP values was performed according to EEC directive 79/831 Annex V.A8 by HPLC (High Performance Liquid Chromatography) on reversed phase columns (Agilent Zorbax Eclipse C18) with the following methods: • ^[a] LogP value is determined by measurement of LC-UV and/or MS and/or ELS, in an acidic range, with 0.1% formic acid in water and acetonitrile as eluent (linear gradient from 10% acetonitrile to 95% acetonitrile). • ^[b] LogP value is determined by measurement of LC-UV and/or MS and/or ELS, in a neutral range, with 0.001 molar ammonium acetate solution in water and acetonitrile as eluent (linear gradient from 10% acetonitrile to 95% acetonitrile). If more than one LogP value is available within the same method, all the values are given and separated by "+". Calibration was done with straight-chain alkan2-ones (with 3 to 16 carbon atoms) with known LogP values (measurement of LogP values using retention times with linear interpolation between successive alkanones). Lambda-max-values were determined using UV-spectra from 200 nm to 400 nm and the peak values of the chromatographic signals.

The mark [1] stands for this setting: [Method A] as printed in the preparation examples (taken as method [a], acidic range).
The mark [2] stands for this setting: method [a]: acidic range, 0.1% formic acid in water and acetonitrile as eluent (linear gradient 10% to 95% acetonitrile).

SMILES strings stand for the structures. Read-outs that look alike come from different tables or passages of the source.

By LogP is commonly meant a log measure of how a compound divides between an organic and an aqueous phase. Lower therefore signals a more hydrophilic compound. The chromatographic logP is lipophilicity estimated from chromatographic retention.

Regarding `CCOC(=O)c1cnn(Cc2ccc(-c3noc(C(F)(F)Cl)n3)cc2F)c1` [1.01, ethyl 1-(4-{5-[chloro(difluoro)methyl]-1,2,4-oxadiazol-3-yl}-2-fluorobenzyl)-1H-pyrazole-4-carboxytate], the lipophilicity (LogP) is 3.98^[a].

Regarding `CCOC(=O)c1cnn(Cc2ccc(-c3noc(C(F)(F)Cl)n3)cc2F)c1` [I.01], under setting [1], the LogP was found to be 3.98.

Take `CONCc1ccc(-c2noc(C(F)(F)Cl)n2)cc1` [V-a, 1-[4-[5-[Chloro(difluoro)methyl]-1.2.4-oxadiazol-3-yl]phenyl]-N-methoxy-methanamine]: the chromatographic logP reads like this: under setting [1], 3.09; under setting [2], 3.09.

Turning to `Cc1ccc(-c2noc(C(F)(F)Cl)n2)s1` [X-a, 5-[chloro(difluoro)methyl]-3-(5-methyl-2-thienyl)-1,2,4-oxadiazole], the chromatographic logP under setting [1] was 4.18 and the chromatographic logP under setting [2] amounted to 4.18.

For the compound `CCOC(=O)c1cnn(Cc2ccc(-c3noc(C(F)(F)Cl)n3)s2)c1` [I.02], the LogP under setting [1] is on record as 3.81.

With `COC(C)C(=O)N(Cc1ccc(-c2noc(C(F)(F)Cl)n2)cc1)OC` (stereo not shown) [1.05, N-(4-{5-[chloro(difluoro)methyl]-1,2,4-oxadiazol-3-yl}benzyl)-N,2-dimethoxypropan-amide], the chromatographic logP is 3.31 under setting [1] and 3.31 under setting [2].

With `Fc1cc(-c2noc(C(F)(F)Cl)n2)ccc1CBr` [VIII'-a, 3-[4-(bromomethyl)-3-fluorophenyl]-5-[chloro(difluoro)methyl]-1,2,4-oxadiazole], the chromatographic logP by setting is: under setting [1], 4.66; under setting [2], 4.66.

As for `Cc1ccc(-c2noc(C(F)(F)Cl)n2)cc1` [X-b, 3-(4-Methylphenyl)-5-(chlorodifluoromethyl)-1,2,4-oxadiazole], the chromatographic logP under setting [1] is 4.55 and the chromatographic logP under setting [2] stood at 4.55.

Consider `Cc1ccc(C(N)=NO)s1` [N'-hydroxy-5-methylthiophene-2-carboximidamide], for which the chromatographic logP ([Method B] as printed in the preparation examples (taken as method [b], neutral range, 0.001 molar ammonium acetate)) amounted to 1.17.

For `FC(F)(Cl)c1nc(-c2ccc(CBr)cc2)no1` [VIII'-c, 3-[4-(Bromomethyl)phenyl]-5-(chlorodifluoromethyl)-1,2,4-oxadiazole], the chromatographic logP is 4.48 under setting [1] and 4.48 under setting [2].

Under setting [2], `CCOC(=O)c1cnn(Cc2ccc(-c3noc(C(F)(F)Cl)n3)s2)c1` [1.02, ethyl 1-[(5-{5-[chloro(difluoro)methyl]-1,2,4-oxadiazol-3-yl}-2-thienyl)methyl]-1H-pyrazole-4-carboxylate] showed a chromatographic logP of 3.81.

As to `OCc1ccc(-c2noc(C(F)(F)Cl)n2)cc1F` [VIII"-a, (4-{5-[chloro(difluoro)methyl]-1,2,4-oxadiazol-3-yl}-2-fluorophenyl)methanol], the chromatographic logP is, setting by setting: under setting [1], 2.98; under setting [2], 2.98.

With `FC(F)(Cl)c1nc(-c2ccc(CBr)s2)no1` [VIII'-b, 3-[5-(bromomethyl)-2-thienyl]-5-[chloro(difluoro)methyl]-1,2,4-oxadiazole], the chromatographic logP is, setting by setting: under setting [1], 4.2; under setting [2], 4.2.

For `C#Cc1ccn(Cc2ccc(-c3noc(C(F)(F)Cl)n3)cc2)n1` [1.03, 5-[chloro(difluoro)methyl]-3-{4-[(3-ethynyl-1H-pyrazol-1-yl)methyl]phenyl}-1,2,4-oxadiazole], the chromatographic logP was determined as 3.31 under setting [1] and 3.81 under setting [2].

As for `CONC(=O)N(Cc1ccc(-c2noc(C(F)(F)Cl)n2)cc1)OC` [1.04, 1-(4-{5-[Chloro(difluoro)methyl]-1,2,4-oxadiazol-3-yl}benzyl)-1,3-dimethoxyurea], the chromatographic logP under setting [1] is 2.92 and the chromatographic logP under setting [2] amounted to 2.92.

The values above are taken from EP4295688A1, “ACTIVE COMPOUND COMBINATION” (Bayer Aktiengesellschaft, priority 2022, dated 2023).
